The values below come from PubChem BioAssay AID248 (DTP/NCI, 2004).

This experiment concerns L1210 leukemia ip in BDF1 mice, survival T/C. Put plainly: NCI In Vivo Anticancer Drug Screen. Data for tumor model L1210 Leukemia (intraperitoneal) in B6D2F1 (BDF1) mice. To be noted: endpoint: mean survival time, higher = longer survival. The essentials:
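Ratio derived from survival: compound-dosed mice over vehicle-dosed mice, all bearing a transplantable tumor.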

[1] abbreviates: dose: 100.0 mg/kg/injection, schedule: Q01DX009 (ip), vehicle: saline with Tween-80.
[2] abbreviates: dose: 200.0 mg/kg/injection, schedule: Q01DX009 (ip), vehicle: saline with Tween-80.
Where [3] appears, read: dose: 400.0 mg/kg/injection, schedule: Q01DX009 (ip), vehicle: saline with Tween-80.
The mark [4] stands for this setting: dose: 100.0 mg/kg/injection, schedule: Q01DX001 (ip), vehicle: other.
[5] abbreviates: dose: 200.0 mg/kg/injection, schedule: Q01DX001 (ip), vehicle: other.
[6] abbreviates: dose: 400.0 mg/kg/injection, schedule: Q01DX001 (ip), vehicle: other.
[7] abbreviates: dose: 100.0 mg/kg/injection, schedule: Q04DX002 (ip), vehicle: Klucel (hydroxypropylcellulose) (HPC).
Setting [8] is: dose: 200.0 mg/kg/injection, schedule: Q04DX002 (ip), vehicle: Klucel (hydroxypropylcellulose) (HPC).
Setting [9] is: dose: 100.0 mg/kg/injection, schedule: Q01DX009 (ip), vehicle: saline.
Setting [10] is: dose: 200.0 mg/kg/injection, schedule: Q01DX009 (ip), vehicle: saline.
The mark [11] stands for this setting: dose: 400.0 mg/kg/injection, schedule: Q01DX009 (ip), vehicle: saline.
Setting [12] is: dose: 100.0 mg/kg/injection, schedule: Q01DX001 (ip), vehicle: saline with Tween-80.
Setting [13] is: dose: 200.0 mg/kg/injection, schedule: Q01DX001 (ip), vehicle: saline with Tween-80.
Setting [14] is: dose: 100.0 mg/kg/injection, schedule: Q01DX001 (ip), vehicle: saline.
Setting [15] is: dose: 200.0 mg/kg/injection, schedule: Q01DX001 (ip), vehicle: saline.
Setting [16] is: dose: 400.0 mg/kg/injection, schedule: Q01DX001 (ip), vehicle: saline.

Where “and” joins values, the source holds several entries; their conditions need not be identical. Identical values can stand only once. Inconclusive results and toxic doses are left out.

`O=NN(CCCl)C(=O)Nc1ccc2oc(=O)c3ccccc3c2c1`: the T/C reads like this: (dose: 1.25 mg/kg/injection, schedule: Q01DX001 (ip), vehicle: Klucel (hydroxypropylcellulose) (HPC)) 123 % of control; (dose: 2.5 mg/kg/injection, schedule: Q01DX001 (ip), vehicle: Klucel (hydroxypropylcellulose) (HPC)) 105 % of control; (dose: 5.0 mg/kg/injection, schedule: Q01DX001 (ip), vehicle: Klucel (hydroxypropylcellulose) (HPC)) 112 % of control; (dose: 10.0 mg/kg/injection, schedule: Q01DX001 (ip), vehicle: carboxymethylcellulose (CMC)) 150 % of control; (dose: 35.0 mg/kg/injection, schedule: Q01DX001 (ip), vehicle: carboxymethylcellulose (CMC)) 164 % of control; (dose: 150.0 mg/kg/injection, schedule: Q01DX001 (ip), vehicle: carboxymethylcellulose (CMC)) 120 % of control. Moreover, the T/C (dose: 177.0 mg/kg/injection, schedule: Q01DX009 (ip), vehicle: carboxymethylcellulose (CMC)) was 101 % of control; the T/C (dose: 266.0 mg/kg/injection, schedule: Q01DX009 (ip), vehicle: carboxymethylcellulose (CMC)) is 95 % of control; the T/C (dose: 400.0 mg/kg/injection, schedule: Q01DX009 (ip), vehicle: carboxymethylcellulose (CMC)) was 92 % of control; the T/C (dose: 600.0 mg/kg/injection, schedule: Q01DX001 (ip), vehicle: carboxymethylcellulose (CMC)) is 152 % of control; the T/C (dose: 600.0 mg/kg/injection, schedule: Q01DX009 (ip), vehicle: carboxymethylcellulose (CMC)) is 87 % of control.

With `CCCCOc1ccc(OC(=O)Nc2cccc(C(F)(F)F)c2)cc1`, the T/C was 96 % of control under setting [1], 94 % of control under setting [2] and 94 % of control under setting [3].

As to `C/C=C(\C)COC(=O)c1ccc([N+](=O)[O-])cc1`, the T/C is, setting by setting: under setting [4], 104 % of control; under setting [5], 98 % of control; under setting [6], 93 % of control.

Take `O=C(/C=C/c1ccccc1)N1CCCCC1`: the T/C reads like this: under setting [1], 93 % of control; under setting [7], 108 % of control; under setting [2], 95 % of control; under setting [8], 101 % of control; under setting [3], 102 % of control.

As to `O=C1CN(CCN2CC(=O)N(Cc3ccccc3)C2=S)C(=S)N1Cc1ccccc1`, the T/C was 88 % of control under setting [7]; 88 % of control under setting [8]; 92 % of control (dose: 400.0 mg/kg/injection, schedule: Q04DX002 (ip), vehicle: Klucel (hydroxypropylcellulose) (HPC)).

Take `OCC1SC(O)C(O)C(O)C1O` (stereo not given): the T/C is 102 % of control (dose: 50.0 mg/kg/injection, schedule: Q01DX009 (ip), vehicle: saline); 100 % of control (dose: 50.0 mg/kg/injection, schedule: Q01DX009 (oral), vehicle: saline); 102 % of control under setting [9]; 102 % of control (dose: 100.0 mg/kg/injection, schedule: Q01DX009 (oral), vehicle: saline); 112 % of control under setting [10]; 98 % of control (dose: 200.0 mg/kg/injection, schedule: Q01DX009 (oral), vehicle: saline). In addition, the T/C under setting [11] was 109 % of control and the T/C (dose: 400.0 mg/kg/injection, schedule: Q01DX009 (oral), vehicle: saline) was 96 % of control.

Take `COc1cc(Br)c(CCC(=O)O)cc1OC`: the T/C by setting is: under setting [9], 97 % of control; (dose: 100.0 mg/kg/injection, schedule: Q04DX003 (ip), vehicle: saline with Tween-80) 96 % of control; under setting [10], 94 % of control; (dose: 200.0 mg/kg/injection, schedule: Q04DX003 (ip), vehicle: saline with Tween-80) 114 % of control; under setting [11], 100 % of control; (dose: 400.0 mg/kg/injection, schedule: Q04DX003 (ip), vehicle: saline with Tween-80) 91 % of control.

For the compound `COc1cc(OC)c(/C=C/c2cnc3ccccc3n2)c(OC)c1`, the T/C (dose: 3.13 mg/kg/injection, schedule: Q04DX002 (ip), vehicle: saline with Tween-80) was 104 % of control; the T/C (dose: 6.25 mg/kg/injection, schedule: Q04DX002 (ip), vehicle: saline with Tween-80) was 95 % of control; the T/C (dose: 12.5 mg/kg/injection, schedule: Q04DX002 (ip), vehicle: saline with Tween-80) is 88 % of control; the T/C (dose: 50.0 mg/kg/injection, schedule: Q04DX002 (ip), vehicle: saline with Tween-80) is 90 % of control.

In the case of `O=C(COCc1ccccc1)OCc1ccccc1`, the T/C is, setting by setting: (dose: 100.0 mg/kg/injection, schedule: Q01DX009 (ip), vehicle: saline sonified) 100 % of control; (dose: 100.0 mg/kg/injection, schedule: Q04DX003 (ip), vehicle: saline sonified) 90 % of control; (dose: 100.0 mg/kg/injection, schedule: Q04DX003 (ip), vehicle: saline) 98 % of control; (dose: 200.0 mg/kg/injection, schedule: Q01DX009 (ip), vehicle: saline sonified) 102 % of control; (dose: 200.0 mg/kg/injection, schedule: Q04DX003 (ip), vehicle: saline sonified) 114 % of control; (dose: 200.0 mg/kg/injection, schedule: Q04DX003 (ip), vehicle: saline) 94 % of control. The T/C is, setting by setting: (dose: 400.0 mg/kg/injection, schedule: Q01DX009 (ip), vehicle: saline sonified) 98 % of control; (dose: 400.0 mg/kg/injection, schedule: Q04DX003 (ip), vehicle: saline sonified) 106 % of control; (dose: 400.0 mg/kg/injection, schedule: Q04DX003 (ip), vehicle: saline) 94 % of control.

On to `CCOC(=O)c1cccc2nc3n(c12)CCC3`, for which the T/C was 105 % of control (dose: 50.0 mg/kg/injection, schedule: Q01DX009 (ip), vehicle: saline with Tween-80); 101 % of control under setting [12]; 95 % of control under setting [1]; 103 % of control under setting [13]; 94 % of control under setting [2].

Regarding `CCCCCCCCCCC(=O)CCC`, the T/C (dose: 50.0 mg/kg/injection, schedule: Q01DX009 (ip), vehicle: Klucel (hydroxypropylcellulose) (HPC)) was 92 % of control; the T/C (dose: 100.0 mg/kg/injection, schedule: Q01DX009 (ip), vehicle: Klucel (hydroxypropylcellulose) (HPC)) was 97 % of control; the T/C (dose: 100.0 mg/kg/injection, schedule: Q04DX003 (ip), vehicle: Klucel (hydroxypropylcellulose) (HPC)) is 95 % of control and 98 % of control; the T/C (dose: 200.0 mg/kg/injection, schedule: Q04DX003 (ip), vehicle: Klucel (hydroxypropylcellulose) (HPC)) was 90 % of control; the T/C (dose: 400.0 mg/kg/injection, schedule: Q04DX003 (ip), vehicle: Klucel (hydroxypropylcellulose) (HPC)) is 95 % of control and 100 % of control.

As to `CC1C(C)C1(Br)c1ccccc1` (stereo not given), the T/C is, setting by setting: under setting [14], 91 % of control; under setting [15], 101 % of control; under setting [16], 96 % of control.

Regarding `O=C(N/N=C/c1ccc(Cl)cc1)C(c1ccccc1)N1CCCCC1` (stereo not given), the T/C under setting [4] is 96 % of control, the T/C under setting [5] is 87 % of control and the T/C under setting [6] was 93 % of control.

For `CCN(CC)CCNCc1ccc(Cl)cc1`, the T/C (dose: 25.0 mg/kg/injection, schedule: Q04DX003 (ip), vehicle: Klucel (hydroxypropylcellulose) (HPC)) is 92 % of control; the T/C (dose: 50.0 mg/kg/injection, schedule: Q04DX003 (ip), vehicle: Klucel (hydroxypropylcellulose) (HPC)) is 96 % of control; the T/C (dose: 75.0 mg/kg/injection, schedule: Q04DX003 (ip), vehicle: Klucel (hydroxypropylcellulose) (HPC)) was 96 % of control and 103 % of control.

For the compound `O=[N+]([O-])c1ccc(OCc2ccc(S(=O)(=O)F)cc2Cl)c(Cl)c1`, the T/C by setting is: (dose: 100.0 mg/kg/injection, schedule: Q04DX003 (ip), vehicle: gum acacia) 98 % of control; (dose: 200.0 mg/kg/injection, schedule: Q04DX003 (ip), vehicle: gum acacia) 95 % of control; (dose: 400.0 mg/kg/injection, schedule: Q04DX003 (ip), vehicle: gum acacia) 97 % of control.

Regarding `CCC(C)(C1CCC(=O)CC1)C1CCC(=O)CC1`, the T/C under setting [14] was 94 % of control, the T/C under setting [15] is 100 % of control and the T/C under setting [16] was 93 % of control.

In the case of `O=C(NCc1ccco1)Nc1ccc(Cl)cc1`, the T/C is 101 % of control under setting [12]; 96 % of control under setting [13]; 108 % of control (dose: 400.0 mg/kg/injection, schedule: Q01DX001 (ip), vehicle: saline with Tween-80).
